Where two headings read alike, the source gives them in different places.
Columns and labels:
[1] = system: Mycosphaerella graminicola; Anamorph: Septoria tritici; test: Leaf blotch of wheat (SEPTTR) disease control on wheat seedlings; type: in vivo; settings: Zymoseptoria tritici, High volume application, 100 ppm
Protocol: Technical grades of materials were dissolved in acetone, which were then mixed with nine volumes of water containing 110 ppm Triton X-100. The fungicide solutions were applied onto wheat seedlings using an automated booth sprayer to run-off. All sprayed plants were allowed to air dry prior to further handling. All fungicides were evaluated using the aforementioned method for their activity vs. all target diseases. Wheat leaf blotch and brown rust activity were also evaluated using track spray applications, in which case the fungicides were formulated as EC formulations, containing 0.1% Trycol 5941 in the spray solutions. Wheat plants (variety Yuma) were grown from seed in a greenhouse in 50% mineral soil/50% soil-less Metro mix until the first leaf was fully emerged, with 7-10 seedlings per pot. These plants were inoculated with an aqueous spore suspension of Septoria tritici either prior to or after fungicide treatments. After inoculation the plants were kept in 100% relative humidity (one day in a dark dew chamber followed by two to three days in a lighted dew chamber at 20° C.) to permit spores to germinate and infect the leaf. The plants were then transferred to a greenhouse set at 20° C. for disease to develop. When disease symptoms were fully expressed on the 1st leaves of untreated plants, infection levels were assessed on a scale of 0 to 100 percent disease severity. Percent disease control was calculated using the ratio of disease severity on treated plants relative to untreated plants.

[2] = system: Puccinia triticina; Synonym: Puccinia recondite f. sp. tritici; test: Wheat brown rust (PUCCRT) disease control on wheat seedlings; type: in vivo; settings: Puccinia triticina, High volume application, 100 ppm
Protocol: Technical grades of materials were dissolved in acetone, which were then mixed with nine volumes of water containing 110 ppm Triton X-100. The fungicide solutions were applied onto wheat seedlings using an automated booth sprayer to run-off. All sprayed plants were allowed to air dry prior to further handling. All fungicides were evaluated using the aforementioned method for their activity vs. all target diseases. Wheat leaf blotch and brown rust activity were also evaluated using track spray applications, in which case the fungicides were formulated as EC formulations, containing 0.1% Trycol 5941 in the spray solutions. Wheat plants (variety Yuma) were grown from seed in a greenhouse in 50% mineral soil/50% soil-less Metro mix until the first leaf was fully emerged, with 7-10 seedlings per pot. These plants were inoculated with an aqueous spore suspension of Puccinia triticina either prior to or after fungicide treatments. After inoculation the plants were kept in a dark dew room at 22° C. with 100% relative humidity overnight to permit spores to germinate and infect the leaf. The plants were then transferred to a greenhouse set at 24° C. for disease to develop. Fungicide formulation, application and disease assessment followed the procedures as described in the Example A.

[3] = 24 h, 1 Day Protectant, read-out: SEPTTR 1DP disease control
[4] = 72 h, 3 Day Curative, read-out: SEPTTR 3DC disease control
[5] = 24 h, 1 Day Protectant, read-out: PUCCRT 1DP disease control
[6] = 72 h, 3 Day Curative, read-out: PUCCRT 3DC disease control

Row | SMILES | pest or weed control at 100 ppm [1, 3] | pest or weed control at 100 ppm [1, 4] | pest or weed control at 100 ppm [2, 5] | pest or weed control at 100 ppm [2, 6]
1 | COc1ccnc(C(=O)N[C@H]2CCC[C@H](Oc3ccccc3)[C@@H](OCCCC(F)(F)F)[C@H](C)OC2=O)c1OC(C)=O [F109] | 80 to 100% | 80 to 100% | 80 to 100% | 80 to 100%
2 | COCCC(=O)Oc1c(OC)ccnc1C(=O)N[C@H]1CCC[C@H](Oc2ccccc2)[C@@H](OCCCC(F)(F)F)[C@H](C)OC1=O [F110] | 80 to 100% | 80 to 100% | 80 to 100% | 80 to 100%
3 | COc1ccnc(C(=O)N[C@H]2CCC[C@H](Oc3ccccc3)[C@@H](OCCCc3ccccc3)[C@H](C)OC2=O)c1O [F111] | 0 to 80% | 0 to 80% | 80 to 100% | < 0%
4 | COc1ccnc(C(=O)N[C@H]2CCC[C@H](Oc3ccccc3)[C@@H](OCCCc3ccccc3)[C@H](C)OC2=O)c1OCOC(=O)C(C)C [F112] | 80 to 100% | 80 to 100% | 80 to 100% | 80 to 100%
5 | COc1ccnc(C(=O)N[C@H]2CCC[C@H](Oc3ccc(C)cc3)[C@@H](Oc3ccc(C)cc3)[C@H](C)OC2=O)c1O [F113] | < 0% | 0 to 80% | 0 to 80% | 0 to 80%
6 | CCCO[C@H]1[C@H](C)OC(=O)[C@@H](NC(=O)c2nccc(OC)c2O)CCC[C@@H]1OCCC [F114] | 80 to 100% | 80 to 100% | 80 to 100% | 80 to 100%
7 | COc1ccnc(C(=O)N[C@H]2CCC[C@H](Oc3ccc(C)cc3)[C@@H](Oc3ccc(C)cc3)[C@H](C)OC2=O)c1OCOC(C)=O [F115] | 80 to 100% | 0 to 80% | 80 to 100% | 0 to 80%
8 | CCCO[C@H]1[C@H](C)OC(=O)[C@@H](NC(=O)c2nccc(OC)c2OCOC(C)=O)CCC[C@@H]1OCCC [F116] | 80 to 100% | 80 to 100% | 80 to 100% | 80 to 100%
9 | COc1ccnc(C(=O)N[C@H]2CCC[C@H](OCC3CC3)[C@@H](OCC3CC3)[C@H](C)OC2=O)c1O [F117] | < 0% | 80 to 100% | 80 to 100% | 80 to 100%
10 | CCCO[C@H]1[C@H](C)OC(=O)[C@@H](NC(=O)c2nccc(OC)c2O)CCC[C@@H]1OC1CCCC1 [F118] | 80 to 100% | 0 to 80% | 80 to 100% | 80 to 100%
11 | CCCO[C@H]1[C@H](C)OC(=O)[C@@H](NC(=O)c2nccc(OC)c2OCOC(C)=O)CCC[C@@H]1OC1CCCC1 [F121] | 80 to 100% | 80 to 100% | 80 to 100% | 80 to 100%
12 | COc1ccnc(C(=O)N[C@H]2CCC[C@H](OC3CCCC3)[C@@H](OCC(C)C)[C@H](C)OC2=O)c1OCOC(C)=O [F122] | 80 to 100% | 80 to 100% | 80 to 100% | 80 to 100%
13 | CCCO[C@H]1[C@H](C)OC(=O)[C@@H](NC(=O)c2nccc(OC)c2OCOC(=O)C(C)C)CCC[C@@H]1OC1CCCC1 [F123] | 80 to 100% | 80 to 100% | 80 to 100% | 80 to 100%
14 | COc1ccnc(C(=O)N[C@H]2CCC[C@H](OC3CCCC3)[C@@H](OCC(C)C)[C@H](C)OC2=O)c1OCOC(=O)C(C)C [F124] | 80 to 100% | 80 to 100% | 80 to 100% | 80 to 100%
15 | COc1ccnc(C(=O)N[C@H]2CCC[C@H](OC3CCCC3)[C@@H](OCCCC(F)(F)F)[C@H](C)OC2=O)c1OCOC(C)=O [F125] | 80 to 100% | 80 to 100% | 80 to 100% | 80 to 100%
16 | COc1ccnc(C(=O)N[C@H]2CCC[C@H](OC3CCCC3)[C@@H](OCCCC(F)(F)F)[C@H](C)OC2=O)c1OCOC(=O)C(C)C [F126] | 80 to 100% | 80 to 100% | 80 to 100% | 80 to 100%
17 | CCCO[C@H]1CCC[C@H](NC(=O)c2nccc(OC)c2O)C(=O)O[C@@H](C)[C@@H]1Oc1ccccc1 [F127] | 80 to 100% | 80 to 100% | 80 to 100% | 80 to 100%
18 | COc1ccnc(C(=O)N[C@H]2CCC[C@H](OCCCc3ccccc3)[C@@H](Oc3ccccc3)[C@H](C)OC2=O)c1O [F128] | 80 to 100% | < 0% | 80 to 100% | 0 to 80%
19 | COc1ccnc(C(=O)N[C@H]2CCC[C@H](OCCCC(F)(F)F)[C@@H](Oc3ccccc3)[C@H](C)OC2=O)c1O [F129] | 80 to 100% | < 0% | 80 to 100% | 80 to 100%
20 | COc1ccnc(C(=O)N[C@H]2CCC[C@H](Oc3ccccc3)[C@@H](OCCCc3ccccc3)[C@H](C)OC2=O)c1OC(C)=O [F131] | 80 to 100% | 80 to 100% | 80 to 100% | 80 to 100%
21 | COc1ccnc(C(=O)N[C@H]2CCC[C@H](OCCCC(F)(F)F)[C@@H](Oc3ccccc3)[C@H](C)OC2=O)c1OCOC(C)=O [F135] | 80 to 100% | 80 to 100% | 80 to 100% | 80 to 100%
22 | COc1ccnc(C(=O)N[C@H]2CCC[C@H](OCCCC(F)(F)F)[C@@H](Oc3ccccc3)[C@H](C)OC2=O)c1OCOC(=O)C(C)C [F136] | 80 to 100% | 80 to 100% | 80 to 100% | 80 to 100%
23 | COc1ccnc(C(=O)N[C@H]2CCC[C@H](OCCCC(F)(F)F)[C@@H](Oc3ccccc3)[C@H](C)OC2=O)c1OC(C)=O [F137] | 80 to 100% | 80 to 100% | 80 to 100% | 80 to 100%
24 | COc1ccnc(C(=O)N[C@H]2CCC[C@H](OC3CCCC3)[C@@H](OC(=O)C3CC3)[C@H](C)OC2=O)c1O [F142] | 0 to 80% | 80 to 100% | 80 to 100% | 80 to 100%
25 | COc1ccnc(C(=O)N[C@H]2CCC[C@H](OC3CCCC3)[C@@H](OC(=O)C3CCCC3)[C@H](C)OC2=O)c1O [F143] | 80 to 100% | 0 to 80% | 80 to 100% | 80 to 100%
26 | COc1ccnc(C(=O)N[C@H]2CCC[C@H](OC3CCCC3)[C@@H](OC(=O)C3CC3)[C@H](C)OC2=O)c1OCOC(C)=O [F144] | 80 to 100% | 80 to 100% | 80 to 100% | 80 to 100%
27 | COc1ccnc(C(=O)N[C@H]2CCC[C@H](OC3CCCC3)[C@@H](OC(=O)C3CC3)[C@H](C)OC2=O)c1OCOC(=O)C(C)C [F145] | 80 to 100% | 80 to 100% | 80 to 100% | 80 to 100%
28 | COCCC(=O)Oc1c(OC)ccnc1C(=O)N[C@H]1CCC[C@H](OC2CCCC2)[C@@H](OCC(C)C)[C@H](C)OC1=O [F146] | 80 to 100% | 80 to 100% | 80 to 100% | 80 to 100%
29 | COCCC(=O)Oc1c(OC)ccnc1C(=O)N[C@H]1CCC[C@H](OC2CCCC2)[C@@H](OC(=O)C2CC2)[C@H](C)OC1=O [F147] | 80 to 100% | 80 to 100% | 80 to 100% | 80 to 100%
30 | COc1ccnc(C(=O)N[C@H]2CCC[C@H](OC3CCCC3)[C@@H](OC(=O)C3CCCC3)[C@H](C)OC2=O)c1OCOC(C)=O [F148] | 80 to 100% | 80 to 100% | 80 to 100% | 80 to 100%

— patent publication US9681664B2, “Macrocyclic picolinamides as fungicides” (Dow Agrosciences LLC, priority 2012, dated 2017)
